The record followed here is ChEMBL document CHEMBL6153083, “Synthesis, Structural Modification, and Antismall Cell Lung Cancer Activity of 3-Arylisoquinolines with Dual Inhibitory Activity on Topoisomerase I and II” (J Med Chem, 2025).

pIC50: −log10 of the molar value.

A short description of data set [1]: Antiproliferative activity against human NCI-H196 cells incubated for 72 hrs. In kind it is functional, cell-based. To be noted: NCI-H196, 72 h.
In data set [2] the test system is NCI-H446. Briefly: Antiproliferative activity against human NCI-H446 cells incubated for 72 hrs. The note with it: NCI-H446, 72 h. In kind it is functional, cell-based.
The next data set concerns NCI-H146. Briefly: Antiproliferative activity against human NCI-H146 cells incubated for 72 hrs. The note with it: NCI-H146, 72 h. The class given is functional, cell-based.
In the next data set the test system is NCI-H209. Kind of data set: Antiproliferative activity against human NCI-H209 cells incubated for 72 hrs. In kind it is functional, cell-based. To be noted: NCI-H209, 72 h.
Another data set concerns SHP77. Kind of data set: Antiproliferative activity against human SHP77 cells incubated for 72 hrs. In kind it is functional, cell-based. To be noted: SHP77, 72 h.
Data set [3] can be described thus: Antiproliferative activity against human BEAS-2B cells incubated for 72 hrs. The class given is toxicity, cell-based.
Data set [4] in a line: Antiproliferative activity against human L02 cells incubated for 72 hrs. In kind it is toxicity, cell-based.
Another data set has as its system NCI-H82. Kind of data set: Antiproliferative activity against human NCI-H82 cells incubated for 72 hrs. In kind it is functional, cell-based. To be noted: NCI-H82, 72 h.
In data set [5] the test system is NCI-H1048. Briefly: Antiproliferative activity against human NCI-H1048 cells incubated for 72 hrs. The class given is functional, cell-based. To be noted: NCI-H1048, 72 h.
Data set [6] relates to NCI-H446. Briefly: Inhibition of cell invasion in human NCI-H446 cells incubated for 24 hrs by transwell assay. In kind it is functional, cell-based.
Data set [7] concerns NCI-H1048. Briefly: Inhibition of cell invasion in human NCI-H1048 cells incubated for 24 hrs by transwell assay. In kind it is functional, cell-based.
In data set [8] the test system is NCI-H446. Briefly: Induction of early apoptosis in human NCI-H446 cells incubated for 48 hrs by Annexin V-FITC/PI staining based flow cytometry. In kind it is functional, cell-based. The note with it: dose 1-8 µM. Background: A flow cytometer gives signals particle by particle.
Data set [9] concerns NCI-H1048. Kind of data set: Induction of early apoptosis in human NCI-H1048 cells incubated for 48 hrs by Annexin V-FITC/PI staining based flow cytometry. The class given is functional, cell-based. To be noted: dose 1-8 µM.
Data set [10] relates to NCI-H446. Kind of data set: Antitumor activity against human NCI-H446 cells xenografted in BALB/c nude mouse at 20 mg/kg, ip for 21 days relative to control. In kind it is functional. The note with it: NCI-H446, 504 h, time 21 day, read-out: TGI.
The nature of data set [11]: Toxicity in BALB/c nude mouse xenografted with human NCI-H446 cells assessed as body weight change at 20 mg/kg, ip for 21 days. In kind it is organism-based. To be noted: in vivo, 504 h, time 21 day. Background: A xenograft is tissue or cells of one species grown in another, often human tumour cells in immunodeficient mice.

Take `COc1cc([C@@H]2c3cc4c(cc3[C@@H](O[C@@H]3O[C@@H]5CO[C@@H](C)O[C@H]5[C@H](O)[C@H]3O)[C@H]3COC(=O)[C@H]23)OCO4)cc(OC)c1O` [ETOPOSIDE]: the pIC50 was 4.62 in [1]; 5.68 with NCI-H446 [2]; 4.98 in the data set with NCI-H146; less than 4.00 with NCI-H209; 4.58 with SHP77; 5.08 in the data set on NCI-H82. In the data set on NCI-H1048 [5], this compound showed a negative logarithm of the IC50 (pIC50) of 5.82. Besides, the IC50 at 72 h in data set [3] worked out at 6.19 µM; in [4] it was 15.9 µM. The inhibition result in the data set on NCI-H446 [6] and in the data set on NCI-H1048 [7] was “Dose-dependent-effect” throughout. In addition, the Activity entry is “Not active; Exhibited Minimal Impact” in the data set on NCI-H446 [8], “Not active; Exhibited Minimal Impact” in the data set with NCI-H1048 [9] and “Toxic” in data set [11]. The inhibition in vivo at 20 mg/kg in the data set on NCI-H446 [10] was found to be 68.7%.
Consider `OCC1CCN(Cc2cc3c(cc2-c2cc4ccc5c(c4cn2)OCO5)OCO3)C1` (configuration not stated), for which the pIC50 was 4.44 in [1]; 4.17 in the data set on NCI-H446 [2]; 4.77 with NCI-H146; 4.25 with NCI-H209; 4.48 with SHP77; 4.21 with NCI-H82. This compound gave a pIC50 in the data set with NCI-H1048 [5] of 4.46. Also, the IC50 at 72 h worked out at 26.2 µM in data set [3] and 43.2 µM in [4].
Turning to `c1c(CN2CC3(CCCCC3)C2)c(-c2cc3ccc4c(c3cn2)OCO4)cc2c1OCO2`, the pIC50 was 4.51 in data set [1]; 4.86 with NCI-H446 [2]; 4.81 in the data set with NCI-H146; 4.50 in the data set with NCI-H209; 4.63 with SHP77; 4.91 in the data set with NCI-H82. This compound gave a pIC50 in the data set on NCI-H1048 [5] of 4.89. For the same compound, the results for the half-maximal inhibitory concentration (IC50) at 72 h in data set [3] and in data set [4] were 12.6 µM and 41.5 µM, respectively.
Turning to `CC(O)C1CCN(Cc2cc3c(cc2-c2cc4ccc5c(c4cn2)OCO5)OCO3)CC1` (configuration not stated), the pIC50 was 4.49 in data set [1]; 4.56 in the data set with NCI-H446 [2]; 4.61 in the data set on NCI-H146; 4.21 with NCI-H209; 4.55 with SHP77; 4.32 in the data set on NCI-H82. Moreover, in the data set with NCI-H1048 [5], the pIC50 is 4.42. Moreover, the IC50 at 72 h in data set [3] was determined as 21.8 µM; in data set [4], 30.3 µM.
In the case of `CC(C)(O)C1CCN(Cc2cc3c(cc2-c2cc4ccc5c(c4cn2)OCO5)OCO3)CC1`, the negative-log IC50 (pIC50) is 4.28 in data set [1]; 4.54 with NCI-H446 [2]; less than 4.00 with NCI-H146; 4.19 with NCI-H209; 4.39 in the data set with SHP77; 4.17 in the data set on NCI-H82. This compound also had a pIC50 in the data set on NCI-H1048 [5] of 4.25. Moreover, the figures for the IC50 at 72 h in [3] and in [4] were 30.1 µM and 38.2 µM, respectively.
On to `OCCCC1CCN(Cc2cc3c(cc2-c2cc4ccc5c(c4cn2)OCO5)OCO3)CC1`, for which the pIC50 is 4.55 in data set [1]; 4.71 with NCI-H446 [2]; 4.68 in the data set on NCI-H146; 4.16 in the data set with NCI-H209; 4.58 in the data set with SHP77; 4.39 with NCI-H82. The pIC50 in the data set with NCI-H1048 [5] is 4.61. Besides, the IC50 at 72 h was 24.8 µM in data set [3] and 52.2 µM in data set [4].
For `c1c(CN2CCCCCCCC2)c(-c2cc3ccc4c(c3cn2)OCO4)cc2c1OCO2`, the negative logarithm of the IC50 (pIC50) in data set [1] is 4.86; in the data set on NCI-H446 [2] it was 4.90; with NCI-H146, 4.85; in the data set on NCI-H209, 4.51; in the data set on SHP77, 4.79; with NCI-H82 it was 4.82. The compound further had a pIC50 in the data set on NCI-H1048 [5] of 5.14. In addition, the values for the IC50 at 72 h in data set [3] and in [4] were 17 µM and 24.8 µM, respectively.
For `FC1(F)C2CCN(Cc3cc4c(cc3-c3cc5ccc6c(c5cn3)OCO6)OCO4)CC21` (configuration not stated), the pIC50 was 4.56 in data set [1]; 4.96 with NCI-H446 [2]; 4.89 in the data set with NCI-H146; 4.51 in the data set on NCI-H209; 4.80 in the data set with SHP77; 4.35 in the data set with NCI-H82. In the data set with NCI-H1048 [5], this compound had a pIC50 of 4.67. Also, the IC50 at 72 h stood at 10.3 µM in data set [3] and 77.6 µM in data set [4].
For `O=C1CCC2CCN(Cc3cc4c(cc3-c3cc5ccc6c(c5cn3)OCO6)OCO4)CN12` (configuration not stated), the pIC50 in [1] is 4.11; with NCI-H446 [2], 4.30; in the data set with NCI-H146, 4.20; in the data set on NCI-H209, less than 4.00; in the data set with SHP77, 4.44; with NCI-H82, 4.14. This compound had a pIC50 in the data set with NCI-H1048 [5] of less than 4.00. The figures for the IC50 at 72 h in [3] and in data set [4] were greater than 100 µM and 84.6 µM, respectively.
For `CN1CCC(C2CCN(Cc3cc4c(cc3-c3cc5ccc6c(c5cn3)OCO6)OCO4)CC2)CC1`, the pIC50 in data set [1] was 4.50; in the data set on NCI-H446 [2], 4.77; in the data set with NCI-H146, 4.93; in the data set with NCI-H209, 4.57; in the data set with SHP77, 4.81; in the data set with NCI-H82, 4.91. Further, in the data set on NCI-H1048 [5], the negative logarithm of the IC50 (pIC50) was 4.70. The IC50 at 72 h in [3] was 12.2 µM; in [4], greater than 100 µM.
`OCC1CN(Cc2cc3c(cc2-c2cc4ccc5c(c4cn2)OCO5)OCO3)C1`: the negative-log IC50 (pIC50) in data set [1] is 4.37; in the data set with NCI-H446 [2], 4.22; with NCI-H146, less than 4.00; with NCI-H209, 4.10; in the data set with SHP77, 4.20; in the data set with NCI-H82, 4.10. Further, the pIC50 in the data set with NCI-H1048 [5] is 4.21. The IC50 at 72 h in [3] was 23 µM; in [4], greater than 100 µM.
Turning to `CC1(CO)CCN(Cc2cc3c(cc2-c2cc4ccc5c(c4cn2)OCO5)OCO3)CC1`, the pIC50 in [1] is 4.39; with NCI-H446 [2] it was 4.18; in the data set with NCI-H146, 4.15; in the data set on NCI-H209, 4.08; in the data set on SHP77, 4.65; in the data set on NCI-H82, 4.24. The same compound showed a pIC50 in the data set with NCI-H1048 [5] of 4.53. In addition, the results for the concentration for half-maximal inhibition (IC50) at 72 h in data set [3] and in data set [4] were 21.2 µM and 37.9 µM, respectively.
Consider `COCC1CCN(Cc2cc3c(cc2-c2cc4ccc5c(c4cn2)OCO5)OCO3)CC1`, for which the pIC50 in [1] is 4.34; with NCI-H446 [2], 4.41; in the data set with NCI-H146, 4.43; in the data set with NCI-H209 it was 4.27; in the data set on SHP77, 4.42; in the data set on NCI-H82, 4.25. Further, the pIC50 with NCI-H1048 [5] is 4.36. The IC50 at 72 h in [3] is 28.2 µM; in data set [4] it was 48.4 µM.
For the compound `CC(=O)C1CCN(Cc2cc3c(cc2-c2cc4ccc5c(c4cn2)OCO5)OCO3)CC1`, the negative logarithm of the IC50 (pIC50) in data set [1] is 4.29; with NCI-H446 [2] it was 4.31; with NCI-H146, less than 4.00; in the data set on NCI-H209 it was less than 4.00; in the data set with SHP77 it was 4.03; in the data set with NCI-H82, less than 4.00. Further, in the data set with NCI-H1048 [5], the pIC50 is less than 4.00. The IC50 at 72 h in data set [3] and in [4] was greater than 100 µM throughout.

A word on the pIC50: it is −log10 of the IC50, conventionally taken in molar units. Lower therefore signals a large IC50. The IC50 is the concentration needed to halve the response being measured.
